Data: article PMC4116523, “Novel peptides suppress VEGFR-3 activity and antagonize VEGFR-3-mediated oncogenic effects” (Oncotarget, 2014)
Bridges are numbered along the chain shown (N, C = ends). Where no end group is shown, it is not given here.

What was measured:
sVEGFR-3 = experiment: Competition assay of synthesized peptides with rhVEGF-C for binding to plate-bound sVEGFR-3 (ELISA); set-up: species or system human; conditions: sVEGFR-3 250 ng/mL coated; peptide 6 h RT, then rhVEGF-C 300 ng/mL 6 h; ELISA A450/650; mean of three independent experiments; Figure 1A
Protocol: Soluble VEGFR-3 (sVEGFR-3) (250 ng/mL) (Angio-Proteomie, Boston, MA) was immobilized on 96-well plates and blocked with phosphate buffer containing 1% BSA for 1 hour at room temperature. In competition experiments, peptides were incubated with the VEGFR-3-coated plates for 6 hours at room temperature. After incubation, human recombinant VEGF-C protein (rhVEGF-C, 300 ng/mL, 100 μL) was added directly to the wells without removal of the peptides and then incubated at room temperature for 6 hours. The plates were thoroughly washed with 0.1% BSA/PBS buffer (pH 8.5), and anti–VEGF-C Ab was added at 4°C for 24 hours. Biotin-conjugated goat anti-rabbit IgG antibody was added for 1 hour. HRP-conjugated streptavidin was then added for 30 minutes. The free streptavidin conjugate was washed away and freshly prepared substrate solution (TMB) was then added to each well. The reaction was allowed to stand for 15 minutes, and the color development was stopped by the addition of H3PO4 (1.0 mol/L). The absorbance at 450 nm was read with a reference wavelength of 650 nm (A450/650).

SOX2 = SOX2 expression by reverse transcription PCR in A549 spheres; type: cell-based, human; conditions: A549 spheres grown 10 days; Figure S6
Protocol: Total RNA was isolated after A549 spheres had grown for 10 days by using Trizol (Invitrogen, Carlsbad, CA), and cDNA were synthesized with Oligo dT (Thermo Scientific, Brookfield, WI). The specific primers for SOX2 were 5'-TACAACATGATGGAGACG-3' and 5'-[…]-3'. The reaction was cycled at 95°C for 40 seconds, then 56°C for 40 seconds, and then 72°C for 30 seconds for 30 cycles followed by a final extension of 72°C for 5 minutes.

[1] = tested on: MDA-MB-231 breast cancer cells; experiment: Boyden chamber migration/invasion assay, MDA-MB-231; type: cell-based, human; conditions: peptide 100 μM, 24 hours, uncoated / matrigel-coated transwells, Figure 3
Protocol: (§1) Boyden chamber cell migration assays were performed using uncoated transwells and matrigel-coated transwells with membranes (8 μm pore-size) (Becton Dickinson, Mountain View, CA). The chambers were inserted into 24-well culture plates that contained DMEM/F12 with 10% fetal bovine serum. The cells were pretreated with peptide (100 μM) in serum-free DMEM/F12 medium and were loaded into the transwells. After 24 hours, non-migrated cells were removed with a cotton swab and the cells were fixed with methanol for 15 min and stained with crystal violet. The migrated cells were quantified by blind counting of the migrated cells on the lower surface of the membrane from at least 10 fields per chamber using a 20X objective. All migration and invasion assays were normalized to the proliferation rate.

[2] = tested on: MDA-MB-231/VEGF-C lung metastasis; experiment: Experimental metastasis assay, MDA-MB-231/VEGF-C cells by tail vein, bioluminescent imaging of lung; type: in vivo; conditions: SCID mice, n=8, peptide 8 μg/g body weight i.v., one day before cells then twice weekly for 8 weeks; bioluminescence; control peptide P4; Figure 5
Protocol: All animal work was performed in accordance with protocols that were approved by the Institutional Animal Care and Use Committee of the National Health Research Institutes. All of the animal experiments were performed on 6- to 8-week-old CB-17 severe combined immunodeficient (SCID) female mice (supplied by LASCO, Taiwan) with eight animals per group. The control (P4), P5 and P6 peptides were pretreated with 8 μg/g body weight dissolved in 50 μl PBS and i.v. injected into mice one day before cancer cell injection. For experimental metastasis assays, 2.5 × 10^5 viable cells were resuspended in 0.1 mL of PBS and introduced into the circulation via tail vein injection. For the treatment, peptides were administered (8 μg/g body weight) twice weekly for 8 weeks. The luciferase-based, non-invasive bioluminescent imaging and analysis were performed with the Xenogen IVIS-200 system (Xenogen, Alameda, CA, USA).

[3] = tested on: human soluble protein kinase VEGFR-3 (sVEGFR-3); experiment: VEGFR-3 kinase assay ([32P]ATP, poly(Glu:Tyr); Eurofins Panlabs); type: biochemical; conditions: peptides screened at 10 μM, 0.1 μg/ml enzyme, HEPES pH 7.4, 15 min preincubation 37°C, 10 μM ATP, [γ32P]ATP, 30 min, Figure 1B
Protocol: Kinase assays were performed as previously described. Briefly, human soluble protein kinase VEGFR-3 (sVEGFR-3) that was expressed in insect cells was used for the kinase assays. The candidate peptides were preincubated with 0.1 μg/ml of enzyme in modified HEPES buffer pH 7.4 for 15 minutes at 37°C. The reaction was initiated by addition of 0.2 mg/ml poly(Glu:Tyr), 10 μM ATP and 0.25 μCi [γ^32P]ATP for another 30 minute incubation period and terminated by further addition of 3% H3PO4. Aliquots were removed and counted to determine the amount of [^32P] Poly(Glu:Tyr) that formed. Compounds were screened at 10 μM. All peptides were analyzed by Eurofins Panlabs Taiwan Ltd.

VEGFR-3 [4] = experiment: Western blot of VEGF-C-induced VEGFR-3 Tyr1063/1068 phosphorylation; type: cell-based, human; conditions: A549 and 293T/VEGFR-3 cells, peptides 24 hours, rhVEGF-C, Figure 2A, 2B
Protocol: (§2) Cells were incubated in serum-free DMEM/F12 for 24 hours before treatment with or without rhVEGF-C (100 ng/mL). Cells were lysed in RIPA buffer [Tris-HCl (50 mM; pH 7.5), NaCl (120 mM), NP-40 (0.5%), Na3VO4 (200 mM), EDTA (100 mM), sodium deoxycholate (0.5%), SDS (1%)] for 10 minutes on ice. An equal quantity of protein from the cell lysates was resuspended in gel sample buffer, resolved by 10% SDS-PAGE, and transferred to polyvinylidene difluoride membrane membranes (Millipore Corp., Milford, MA). After blocking, membranes were incubated with specific primary antibodies and corresponding secondary antibodies. Immunoreaction signals were visualized by an enhanced chemiluminescence detection system (PerkinElmer Health Sciences, Waltham MA).

[5] = tested on: various cancer cell lines (MDA-MB-231, BT474, HS578T, HBL100, MDA-MB-361, MCF-7, CL1-5, H460, H322); experiment: VEGF-C-induced VEGFR-3 phosphorylation, migration and invasion in various cancer cell lines; type: cell-based, human; conditions: various breast and lung cancer cell lines; Figure 4B-4E, Figure S4
Protocol: as §2
as §1, with “After 24 hours, non-migrated cells were removed with a cotton swab and the cells were fixed with methanol for 15 min and stained with crystal violet.” left out, “All migration and invasion assays were normalized to the proliferation rate.” left out

[6] = tested on: lymphatic endothelia cells (LECs); experiment: VEGF-C-induced VEGFR-3 phosphorylation, migration and proliferation in LECs (western blot, Boyden chamber, MTT); type: cell-based, human; conditions: MTT (96 hrs), Figure 4A
A549 lung cancer cells = experiment: Boyden chamber migration/invasion assay, A549; type: cell-based, human; conditions: peptide 100 μM, 24 hours, uncoated / matrigel-coated transwells, Figure 3
Protocol: as §1

Src = experiment: Western blot of Src phosphorylation (VEGFR-3-mediated signaling pathway); type: cell-based, human; conditions: A549 and 293T/VEGFR-3 cells, rhVEGF-C, Figure 2A, 2B
Protocol: as §2

A549 cells [7] = experiment: VEGF-C-induced drug resistance (Taxol, cisplatin), MTT assay; type: cell-based, human; conditions: A549, peptides 200 μM, rhVEGF-C 100 ng/mL, Taxol or cisplatin; Figure S3
Protocol: A549 lung cancer cells (3×10^3) were cultured in 96-well plates and serum-starved for 24 hours. Cells were treated with the candidate peptides (200 μM) for 4 hours and were treated with rhVEGF-C (100 ng/mL) for 6 hours in serum-free medium. After 48 hours, MTT (5 mg/ml) was added for 3 hours and the precipitates were dissolved in DMSO. The absorbance at 570 nm was read with a reference wavelength of 630 nm (A570/630).

VEGFR-3 [8] = experiment: KIRA-ELISA of tyr-phosphorylated VEGFR-3 in VEGF-C-treated H928 lung cancer cells; type: cell-based, human; conditions: serum-starved, peptide 30 min then rhVEGF-C 15 min, Figure 1C
Protocol: H928 lung cancer cells (2×10^5) were cultured in 24-well plates and serum-starved for 24 hours. Cells were pretreated with candidate peptide for 30 minutes and then treated with rhVEGF-C for 15 minutes. Cells were solubilized in RIPA lysis buffer for 60 minutes. Another 85 μl of cell lysate was transferred to an ELISA well that was coated with VEGFR-3 and incubated for 2 hours. After the plates were washed, biotinylated-4G10 antibody (500 ng/ml, 100 μl) was added and incubated for 2 hours. After the plates were washed, HRP-conjugated streptavidin was then added for 30 minutes. The free avidin conjugate was washed away and freshly prepared substrate solution (TMB) was then added to each well. The reactions were allowed to proceed for 10 minutes, and the color development was stopped by the addition of H3PO4 (1.0 mol/L). The absorbance at 450 nm was read with a reference wavelength of 650 nm (A450/650).

A549 cells [9] = experiment: Sphere-forming assay (tumor initiating cells), A549; type: cell-based, human; conditions: peptide 200 μM, rhVEGF-C 200 ng/mL, 10 days non-adherent, Figure S5A
Protocol: (§3) A549 and MCF-7 cells were serum-starved for 24 hours. The cells were pretreated with candidate peptides (200 μM) in the presence or absence of rhVEGF-C for 24 hours. The cells were trypsinized and mechanically dissociated to generate single cells that were then seeded at a density of 1×10^3 cells/ml in serum-free DMEM/F12 medium (Invitrogen, Carlsbad, CA) that was freshly supplemented with epidermal growth factor (20 ng/ml), basic fibroblast growth factor (20 ng/ml) (R&D Systems, Minneapolis, MN), 1X B27 supplement, 1X N2 supplement (Invitrogen, Carlsbad, CA) in the presence or absence of rhVEGF-C (200 ng/mL) and candidate peptides (200 μM) in non-adherent plates for 10 days. Quantification of sphere formation was determined by measuring the percentage of 5000 spheres.

MCF-7 cells = experiment: Sphere-forming assay (tumor initiating cells), MCF-7; type: cell-based, human; conditions: peptide 200 μM, rhVEGF-C 200 ng/mL, 10 days non-adherent, Figure S5B
Protocol: as §3

A549 cells [10] = experiment: VEGF-C-induced drug resistance (Taxol, cisplatin), DNA flow cytometric and trypan blue exclusion assays; type: cell-based, human; conditions: A549, rhVEGF-C, 20 nM Taxol or 10μM cisplatin 48 hours; flow cytometry (PI) and trypan blue exclusion; Figure 3E-3H
Protocol: Briefly, cells were treated with 20 nM Taxol or 10μM cisplatin and incubated for 48 hours. Samples were prepared and analyzed as previously described.
Briefly, cells were harvested using trypsin and stained with 0.4% trypan blue dye (Sigma-Aldrich). Trypan blue-positive and -negative cells were counted using a hemacytometer (Hausser Scientific, Horsham, PA) under a phase-contrast microscope (Fisher Scientific, Pittsburgh, PA). The results of each assay were expressed in terms of the percentage of dead cells relative to the total number of cells. Individual experiments were performed in triplicate.

With “CNDSHMKLC (disulfide 1-9 (inferred)) [P4, used as control peptide in later assays]” the “levels of sVEGFR-3-bound VEGF-C (competition with VEGF-C binding)” value (shortened to “levels of sVEGFR-3-bound VEGF-C”) (sVEGFR-3) was “reduced the levels of bound VEGF-C in a significant and dose-dependent manner”.
In the case of “CNYSHLFYC (disulfide 1-9 (inferred)) [P5]”, the “expression of SOX2” value (SOX2) was “decreased the expression of SOX2”, the migration and invasion [1] was “Obvious decreases” and the VEGF-C-induced lung metastasis [2] was “significantly inhibited”. The “inhibitory effects on VEGFR-3 kinase activity” value [3] was 82%, the “VEGF-C-induced VEGFR-3 Tyr1063/1068 phosphorylation” value (VEGFR-3 [4]) was “dramatic suppressive effects” and the “VEGF-C-induced VEGFR-3 phosphorylation, cell migration and invasion” value [5] was “significantly inhibited”. The “VEGF-C-induced VEGFR-3 phosphorylation, cell migration and proliferation of LECs” value [6] was “abolished”, the migration and invasion (A549 lung cancer cells) was “Obvious decreases” and the phospho-Src levels (Src) was “decreased phospho-Src levels”. For the same sequence, the “VEGF-C-induced drug resistance by MTT assay” value (A549 cells [7]) was “inhibit”, the “inhibitory effects on the phosphorylation of VEGFR-3 (KIRA-ELISA)” value (VEGFR-3 [8]) was “highest inhibitory effects” and the “levels of sVEGFR-3-bound VEGF-C” value (sVEGFR-3) was “reduced the levels of bound VEGF-C in a significant and dose-dependent manner”. The “sphere formation enhanced by VEGF-C (number and size of spheres)” value (A549 cells [9]) was “decreased the number and size of the spheres”, the “sphere formation enhanced by VEGF-C (number and size of spheres)” value (MCF-7 cells) was “decreased the number and size of the spheres” and the VEGF-C-induced drug resistance (A549 cells [10]) was “inhibit”.
With “CLTSSLRSC (disulfide 1-9 (inferred)) [P8]” the “inhibitory effects on VEGFR-3 kinase activity” value [3] was 49%.
For “CYYGQSKYC (disulfide 1-9 (inferred)) [P6]”, the “expression of SOX2” value (SOX2) was “decreased the expression of SOX2”, the migration and invasion [1] was “Obvious decreases” and the VEGF-C-induced lung metastasis [2] was “significantly inhibited”. The “inhibitory effects on VEGFR-3 kinase activity” value [3] was 72%, the “VEGF-C-induced VEGFR-3 Tyr1063/1068 phosphorylation” value (VEGFR-3 [4]) was “dramatic suppressive effects” and the “VEGF-C-induced VEGFR-3 phosphorylation, cell migration and invasion” value [5] was “significantly inhibited”. The “VEGF-C-induced VEGFR-3 phosphorylation, cell migration and proliferation of LECs” value [6] was “abolished”, the migration and invasion (A549 lung cancer cells) was “Obvious decreases” and the phospho-Src levels (Src) was “decreased phospho-Src levels”. For the same sequence, the “VEGF-C-induced drug resistance by MTT assay” value (A549 cells [7]) was “inhibit”, the “inhibitory effects on the phosphorylation of VEGFR-3 (KIRA-ELISA)” value (VEGFR-3 [8]) was “highest inhibitory effects” and the “levels of sVEGFR-3-bound VEGF-C” value (sVEGFR-3) was “reduced the levels of bound VEGF-C in a significant and dose-dependent manner”. For the same sequence, the VEGF-C-induced drug resistance (A549 cells [10]) was “inhibit”.
“CYYWQSKYC (disulfide 1-9 (inferred)) [P7]” was tested, and the “inhibitory effects on VEGFR-3 kinase activity” value [3] was 69%.
